# Source: patent US20140303216A1, “COMPOSITIONS AND METHODS FOR INDUCING DISRUPTION OF BLOOD VASCULATURE AND FOR REDUCING ANGIOGENESIS” (BOARD OF REGENTS, THE UNIVERSITY OF TEXAS SYSTEM, priority 2011, published 2014)
# What was measured:
# [1] = test system: developing Xenopus embryos; assay: Xenopus embryo angiogenesis, in situ hybridization for erg/apinr and kdr:GFP imaging; assay type: in vivo, Xenopus laevis; details: for anti-angiogenic activity of other benzimidazoles: Xenopus in vivo, at dosages at which TBZ reduces angiogenesis (FIG. 14)
# Excerpt: (§1) Female adult Xenopus were ovulated by injections of human chorionic gonadotropin, and eggs were fertilized in vitro and dejellied in 3% cysteine (pH 7.9) and subsequently reared in ⅓×Marc's modified Ringer's (MMR) solution. For microinjections, embryos were placed in a solution of 2% Ficoll in ⅓×MMR solution, injected using forceps and an Oxford universal manipulator, reared in 2% Ficoll in ⅓×MMR to stage 9, then washed and reared in ⅓×MMR solution alone. For bilateral rab11b knock-down experiments, the posterior cardinal vein and intersomitic veins were targeted by injecting Morpholino antisense oligonucleotides (MOs) into the two ventral cells equatorially at the four-cell stage. For unilateral knockdown, only one ventral cell was injected. MOs were injected at 40 ng per blastomere. For the experiments to see the drug effects, embryos were placed in a solution of each chemical dissolved in 1% DMSO diluted in ⅓×MMR during indicated stages. For bead micro-surgery implantation, Affi-Gel Blue Gel beads (Bio-Rad) were soaked with 0.7 mg/ml recombinant mouse VEGF 164 aa (R&D systems) or BSA as a control. Whole-mount in situ hybridization for erg and apinr was performed as described^29.
# To analyze action of TBZ precisely on inhibition of angiogenesis and disruption of vasculature, we tested TBZ on two different developmental stages. Xenopus late tailbud embryos at stage 31 were selected for testing the inhibitory effect of TBZ on angiogenesis (FIG. 3A-D). This embryonic stage coincides with the onset of intersomitic vein (ISV) angiogenesis, the process of forming smaller blood vessels by sprouting from pre-existing blood vessels. To observe disruption of existing vasculature, we selected stage 35/36 embryos in which the posterior cardinal vein (PCV) and ISV are already developed (FIG. 15).
# HUVECs = assay: HUVEC wound scratch cell migration assay; assay type: cell-based, human; details: added to 250 μM TBZ in 1% DMSO; Y27632 preincubated 2 h
# Procedure: HUVECs (1.2×10^5 cells) were seeded into 24-well plate for 24 h, and the monolayers were wounded identically. Then, cells were washed with PBS and treated with EBM-2 containing 1% DMSO or 250 μM TBZ dissolved in 1% DMSO with combination of Y27632 or GGPP (Sigma). In the case of Y27632 treatment, cells were preincubated for 2 h before wounding. Cells were photographed at time zero and after 15 h, and the ratios of cell free area [(0 h-15 h)/0 h] were calculated.
# lung cancer = details: treatment of lung cancer; cited from earlier work
# angiogenesis = details: from the literature; cited from earlier work
# Xenopus embryos = assay: Xenopus embryo morphology and developmental defects; assay type: in vivo; details: FIG. 14; 250 μM for 2-(Chloromethyl)benzimidazole
# Excerpt: as §1, with “1⁄3×Marc's” for “⅓×Marc's”, “1⁄3×MMR” for “⅓×MMR”, “[…] performed as described^29. Immunostaining for Xenopus” for “erg and apinr”, “previously described (Lee et al., 2008). Embryos at stage 35-36 were fixed in 1×MEMFA. 12/101 (1:500; DSHB), and primary antibodies were detected with Alexa Fluor-488 or 555 goat anti-mouse Immunoglobulin (IgG).” for “described^29.”
anti-angiogenic activity of other benzimidazoles [1],Structure (SMILES),Known effects on angiogenesis (angiogenesis),also measured
–,"CC(C)=CCC/C(C)=C/CC/C(C)=C/CC/C(C)=C/COP(=O)(O)OP(=O)(O)O [GGPP, geranyl-geranyl pyrophosphate]",–,reversal of TBZ-impeded HUVEC migration by added compound (HUVECs): did not reverse
–,Cc1ccc2c(=O)c3cccc(CC(=O)O)c3oc2c1C [ASA404],–,efficacy in Phase III clinical trial (lung cancer): failed to show efficacy
not anti-angiogenic,Clc1ccc2nc(C(Cl)(Cl)Cl)[nH]c2c1 [5-Chloro-2-(trichloromethyl)benzimidazole],–,–
–,O=c1[nH]cc(F)c(=O)[nH]1 [5-fluorouracil],Inhibitor^†,–
–,COc1c(C)c2c(c(O)c1C/C=C(\C)CCC(=O)O)C(=O)OC2 [Mycophenolic acid],Inhibitor*,–
not anti-angiogenic,c1ccc2[nH]cnc2c1 [Benzimidazole],–,activity in reducing angiogenesis ([1]; doses up to 1 mM): inactive
–,[N]=O [Nitric oxide],Activator^#,–
–,CC[C@H](C)C(=O)O[C@H]1C[C@@H](C)C=C2C=C[C@H](C)[C@H](CC[C@@H]3C[C@@H](O)CC(=O)O3)[C@H]21 [lovastatin],inhibit angiogenesis,–
–,C[C@@H](N)[C@H]1CC[C@H](C(=O)Nc2ccncc2)CC1 [Y27632],–,reversal of TBZ-impeded HUVEC migration by added compound (HUVECs): significant and dose-dependent rescue
not anti-angiogenic,O=C(O)c1cccc2[nH]cnc12 [1H-Benzimidazole-4-carboxylic acid],–,–
–,O=S(=O)([O-])[O-].[Cu+2] [CuSO4],Activators^‡,–
not anti-angiogenic,ClCc1nc2ccccc2[nH]1 [2-(Chloromethyl)benzimidazole],–,developmental (birth) defects in Xenopus (Xenopus embryos): pleiotropic birth defects
not anti-angiogenic,Nc1ccc2[nH]c(C(F)(F)F)nc2c1 [5-Amino-2-(trifluoromethyl)benzimidazole],–,–

Structure (SMILES),anti-angiogenic activity of other benzimidazoles [1],Known effects on angiogenesis (angiogenesis),also measured
Nc1nc2ccc(C(=O)c3ccc(F)cc3)cc2[nH]1 [2-Aminoflubendazole],not anti-angiogenic,–,–
